Laboratory results from US9175011B2, “Morpholino substituted urea or carbamate derivatives as MTOR inhibitors” (CELLZOME LIMITED, priority 2011, dated 2015).

How the values were obtained:
[1] = tested on: S6RP serine-240/244 phosphorylation; test: In vitro phospho-S6 cellular assay (HEK293T/17); assay type: cell-based; settings: Homo sapiens; HEK293T/17 cells, 2 hours, pS6RP Ser240/244; read-out: Inhibition values (IC50) pS6
Source text: Activation of mTOR signaling results in phosphorylation of several downstream targets. In cells, mTOR exists in two different protein complexes. The mTOR Complex-1 (mTORC1) phosphorylates and activates S6 Kinase 1 (S6K1) and S6 Kinase 2 (S6K2) (also known as p70S6K) which then phosphorylate S6 Ribosomal Protein (S6RP) (also known as RPS6)3. S6RP is phosphorylated on serine 235, senile 236, serine 240 and serine 244 by both pS6K1 and pS6K2. The mTOR Complex-2 (mTORC2) phosphorylates AKT on serine 473 which activates the AKT signaling pathway.
The assay measures a test compound's inhibition of S6RP serine-240/244 phosphorylation and inhibition of Akt serine-473 phosphorylation in human embryonic kidney derived HEK293T/17 cells (ATCC CRL-11268).
The HEK293T/17 cell line is maintained in DMEM media (Invitrogen catalogue number 41965-039) supplemented with 10% FCS at 37° C. in a 5% CO2 humidified incubator. Cells are seeded in 96-well plates at 40,000 cells/well (pS6RP S240/244 assay) or 80,000 cells/well (pAkt 5473 assay) in 90 μl growth media (DMEM, 2% FCS). Plates are incubated for 1 hour in a humidified incubator to allow the cells to adhere. Cells are treated with 8 concentrations of test compounds or DMSO alone for controls (final DMSO concentration 0.1%) and incubated at 37° C. for 2 hours. Then 20 μl of 5× concentrated lysis buffer (750 mM NaCl, 100 mM Tris pH7.4, 5 mM ADTA, 5 mM EGTA, 5% Triton X-100) is added, plates are sealed and incubated for 15 minutes at 4° C. with gentle shaking After cell lysis, 25 μl cell lysate is transferred to a MesoScale plate coated with an antibody to pS6RP Ser240/244 (MesoScale Discovery K150DGD-3) or an antibody to pAkt Ser 473 (MesoScale Discovery K151DGD-3). Plates have been blocked before by incubation with 150 μl MesoScale Discovery Blocking Solution-A for 1 hour at room temperature followed by washing with 150 μl 1×Tris wash buffer per well. After the transfer of the cell lysate to the MSD plate, the pS6RP (or pAkt) protein is captured on the coated antibody by incubation at room temperature for 1 hour with gentle shaking. After the capture step the plate is washed three times with 150 μl of 1× Tris wash buffer per well. Then 25 μl detection antibody conjugated with a Sulfo-Tag is added and incubated for 1 hour at room temperature with gentle shaking. Subsequently the antibody solution is removed and the plate is washed 3 times with 150 μl 1×Tris wash buffer per well and 150 μl Read buffer is added. The plates are analysed on a MSD 2400 Plate Reader (MesoScale Discovery). Data analysis is performed using nonlinear regression for a sigmoidal dose-response with a variable slope.

PI3K alpha (PI3Kα) = target: T1, PI3K alpha (PI3Kα) (Homo sapiens, UniProt P42336); test: kinobeads assay, PI3K alpha; assay type: binding; settings: Jurkat cell lysate, read-out: Inhibition values (IC50) PI3Ka
T1 construct: Jurkat cells were homogenized in a Potter S homogenizer in lysis buffer; endogenous in cells; host or cells: Jurkat, clone E6-1 (ATCC TIB-152) lysate
T1 sequence (P42336 whole entry): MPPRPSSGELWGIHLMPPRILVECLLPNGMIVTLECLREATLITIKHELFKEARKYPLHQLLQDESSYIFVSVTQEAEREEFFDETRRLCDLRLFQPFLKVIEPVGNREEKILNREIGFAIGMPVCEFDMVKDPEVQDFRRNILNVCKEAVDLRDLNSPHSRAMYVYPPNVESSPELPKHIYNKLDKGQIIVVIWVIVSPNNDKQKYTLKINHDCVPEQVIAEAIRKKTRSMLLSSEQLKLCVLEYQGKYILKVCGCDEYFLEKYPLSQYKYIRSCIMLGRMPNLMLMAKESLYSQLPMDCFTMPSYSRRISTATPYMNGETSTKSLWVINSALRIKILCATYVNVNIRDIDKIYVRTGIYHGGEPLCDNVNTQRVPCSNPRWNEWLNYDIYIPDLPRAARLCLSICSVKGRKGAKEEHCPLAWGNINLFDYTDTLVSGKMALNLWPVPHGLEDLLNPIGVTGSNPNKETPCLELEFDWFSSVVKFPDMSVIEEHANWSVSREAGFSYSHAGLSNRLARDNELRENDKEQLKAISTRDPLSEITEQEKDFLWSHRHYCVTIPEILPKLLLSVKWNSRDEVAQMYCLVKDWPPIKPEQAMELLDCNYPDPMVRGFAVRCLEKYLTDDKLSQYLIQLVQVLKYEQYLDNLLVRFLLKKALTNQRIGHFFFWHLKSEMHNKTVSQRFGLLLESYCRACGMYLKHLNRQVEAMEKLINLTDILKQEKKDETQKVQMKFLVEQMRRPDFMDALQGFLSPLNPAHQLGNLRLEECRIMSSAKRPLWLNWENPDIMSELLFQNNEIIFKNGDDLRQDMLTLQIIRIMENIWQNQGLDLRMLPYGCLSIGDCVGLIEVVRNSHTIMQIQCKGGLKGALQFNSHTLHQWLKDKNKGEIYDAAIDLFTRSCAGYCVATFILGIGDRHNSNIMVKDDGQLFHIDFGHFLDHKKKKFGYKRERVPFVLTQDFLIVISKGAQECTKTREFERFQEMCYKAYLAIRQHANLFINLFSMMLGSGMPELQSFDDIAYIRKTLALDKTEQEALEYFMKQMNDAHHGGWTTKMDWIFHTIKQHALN
T1 sequence (P27986 whole entry partner): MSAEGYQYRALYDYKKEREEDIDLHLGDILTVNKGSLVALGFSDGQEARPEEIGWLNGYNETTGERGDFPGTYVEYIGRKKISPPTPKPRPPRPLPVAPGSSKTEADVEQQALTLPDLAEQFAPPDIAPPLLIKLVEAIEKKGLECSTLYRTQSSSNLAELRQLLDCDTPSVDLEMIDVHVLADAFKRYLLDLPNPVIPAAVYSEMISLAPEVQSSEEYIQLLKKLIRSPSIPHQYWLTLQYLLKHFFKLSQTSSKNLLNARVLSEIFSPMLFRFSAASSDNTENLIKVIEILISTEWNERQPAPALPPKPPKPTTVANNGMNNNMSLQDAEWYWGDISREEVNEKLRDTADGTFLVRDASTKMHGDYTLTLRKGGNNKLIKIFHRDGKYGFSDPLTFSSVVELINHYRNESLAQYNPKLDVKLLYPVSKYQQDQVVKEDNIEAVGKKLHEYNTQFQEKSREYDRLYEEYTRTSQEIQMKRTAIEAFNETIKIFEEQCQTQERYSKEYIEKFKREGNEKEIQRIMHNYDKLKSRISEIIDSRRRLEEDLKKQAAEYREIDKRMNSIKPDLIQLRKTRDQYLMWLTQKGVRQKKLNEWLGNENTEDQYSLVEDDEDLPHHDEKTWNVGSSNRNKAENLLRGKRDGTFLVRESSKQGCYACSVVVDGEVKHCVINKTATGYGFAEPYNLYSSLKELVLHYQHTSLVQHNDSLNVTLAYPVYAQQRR
Method: (§1) The compounds of the present invention as described were tested in the mTOR kinobeads assay as described below. Briefly, test compounds (at various concentrations) and the affinity matrix (1:1 mixture of beads with immobilized phenylthiazole ligand 1 and beads with immobilized phenylmorpholin-chromen ligand; WO 2009/098021) were added to cell lysate aliquots and allowed to bind to the proteins in the lysate sample. After the incubation time the beads with captured proteins were separated from the lysate. Bound proteins were then eluted and the presence of mTOR, PI3K alpha (PI3Kα), PI3K beta (PI3Kb), PI3K gamma (PI3Kg), PI3K delta (PI3Kd) and DNA-dependent protein kinase (DNA-PK) was detected and quantified using a specific antibody in a dot blot procedure and the Odyssey infrared detection system. Dose response curves for individual kinases were generated and IC50 values calculated. Kinobeads assays for PI3 kinases (WO-A 2008/015013) and for kinase selectivity profiling (WO 2009/098021) have been previously described.
(§2) The affinity matrix (beads with immobilized phenylmorpholin-chromen ligand) was washed three times with 15 ml of 1×DP buffer containing 0.2% NP40 (IGEPAL® CA-630, Sigma, #13021) and then resuspended in 5.5 ml of 1×DP buffer containing 0.2% NP40 (10% beads slurry).
(§3) 5×DP buffer: 250 mM Tris-HCl pH 7.4, 25% Glycerol, 7.5 mM MgCl2, 750 mM NaCl, 5 mM Na3VO4, filter the 5×-lysis buffer through 0.22 μm filter and store in aliquots at −80° C. The 5×DP buffer is diluted to 1×DP buffer containing 1 mM DTT and 25 mM NaF.
(§4) Stock solutions of test compounds were prepared in DMSO. In a 96 well plate 30 μl solution of diluted test compounds at 5 mM in DMSO were prepared. Starting with this solution a 1:3 dilution series (9 steps) was prepared. For control experiments (no test compound) a buffer containing 2% DMSO was used. Compound PI-103 served as a positive control (Calbiochem catalogue number 528100).
(§5) Jurkat cells (ATCC catalogue number TIB-152 Jurkat, clone E6-1) were grown in 1 liter Spinner flasks (Integra Biosciences, #182101) in suspension in RPMI 1640 medium (Invitrogen, #21875-034) supplemented with 10% Fetal Bovine Serum (Invitrogen) at a density between 0.15×10^6 and 1.2×10^6 cells/ml. Cells were harvested by centrifugation, washed once with 1×PBS buffer (Invitrogen, #14190-094) and cell pellets were frozen in liquid nitrogen and subsequently stored at −80° C.
(§6) Jurkat cells were homogenized in a Potter S homogenizer in lysis buffer: 50 mM Tris-HCl, 0.8% NP40, 5% glycerol, 150 mM NaCl, 1.5 mM MgCl2, 25 mM NaF, 1 mM sodium vanadate, 1 mM DTT, pH 7.5. One complete EDTA-free tablet (protease inhibitor cocktail, Roche Diagnostics, 1873580) per 25 ml buffer was added. The material was dounced 10 times using a mechanized POTTER S, transferred to 50 ml falcon tubes, incubated for 30 minutes on ice and spun down for 10 min at 20,000 g at 4° C. (10,000 rpm in Sorvall SLA600, precooled). The supernatant was transferred to an ultracentrifuge (UZ)-polycarbonate tube (Beckmann, 355654) and spun for 1 hour at 100.000 g at 4° C. (33.500 rpm in Ti50.2, precooled). The supernatant was transferred again to a fresh 50 ml falcon tube, the protein concentration was determined by a Bradford assay (BioRad) and samples containing 50 mg of protein per aliquot were prepared. The samples were immediately used for experiments or frozen in liquid nitrogen and stored frozen at −80° C.
(§7) Jurkat cell lysate (approximately 50 mg protein per plate) was thawed in a water bath at room temperature and then kept on ice. To the thawed cell lysate 1×DP 0.8% NP40 buffer containing protease inhibitors (1 tablet for 25 ml buffer; EDTA-free protease inhibitor cocktail; Roche Diagnostics 1873580) was added in order to reach a final protein concentration of 5 mg/ml total protein. The diluted cell lysate was stored on ice. […]

[2] = target: T2, DNA-dependent protein kinase (DNA-PK) (Homo sapiens, UniProt P78527); test: kinobeads assay, DNA-PK; assay type: binding; settings: Jurkat cell lysate, read-out: Inhibition values (IC50) DNA-PK
T2 construct: Jurkat cells were homogenized in a Potter S homogenizer in lysis buffer; endogenous in cells; host or cells: Jurkat, clone E6-1 (ATCC TIB-152) lysate
Method: as §1, §2, §3, §4, §5, §6, §7

mTOR = target: T3, mTOR (Homo sapiens, UniProt P42345); test: mTOR kinobeads assay (Jurkat cell lysate, dot blot detection); assay type: binding; settings: read-out: Inhibition values (IC50) mTor
T3 construct: Jurkat cells were homogenized in a Potter S homogenizer in lysis buffer; endogenous in cells; host or cells: Jurkat, clone E6-1 (ATCC TIB-152) lysate
Method: as §1, §2, §3, §4, §5, §6, §7

PI3K beta (PI3Kb) = target: T4, PI3K beta (PI3Kb) (Homo sapiens, UniProt P42338); test: kinobeads assay, PI3K beta; assay type: binding; settings: Jurkat cell lysate, read-out: Inhibition values (IC50) PI3Kb
T4 construct: Jurkat cells were homogenized in a Potter S homogenizer in lysis buffer; endogenous in cells; host or cells: Jurkat, clone E6-1 (ATCC TIB-152) lysate
T4 sequence (P42338 whole entry): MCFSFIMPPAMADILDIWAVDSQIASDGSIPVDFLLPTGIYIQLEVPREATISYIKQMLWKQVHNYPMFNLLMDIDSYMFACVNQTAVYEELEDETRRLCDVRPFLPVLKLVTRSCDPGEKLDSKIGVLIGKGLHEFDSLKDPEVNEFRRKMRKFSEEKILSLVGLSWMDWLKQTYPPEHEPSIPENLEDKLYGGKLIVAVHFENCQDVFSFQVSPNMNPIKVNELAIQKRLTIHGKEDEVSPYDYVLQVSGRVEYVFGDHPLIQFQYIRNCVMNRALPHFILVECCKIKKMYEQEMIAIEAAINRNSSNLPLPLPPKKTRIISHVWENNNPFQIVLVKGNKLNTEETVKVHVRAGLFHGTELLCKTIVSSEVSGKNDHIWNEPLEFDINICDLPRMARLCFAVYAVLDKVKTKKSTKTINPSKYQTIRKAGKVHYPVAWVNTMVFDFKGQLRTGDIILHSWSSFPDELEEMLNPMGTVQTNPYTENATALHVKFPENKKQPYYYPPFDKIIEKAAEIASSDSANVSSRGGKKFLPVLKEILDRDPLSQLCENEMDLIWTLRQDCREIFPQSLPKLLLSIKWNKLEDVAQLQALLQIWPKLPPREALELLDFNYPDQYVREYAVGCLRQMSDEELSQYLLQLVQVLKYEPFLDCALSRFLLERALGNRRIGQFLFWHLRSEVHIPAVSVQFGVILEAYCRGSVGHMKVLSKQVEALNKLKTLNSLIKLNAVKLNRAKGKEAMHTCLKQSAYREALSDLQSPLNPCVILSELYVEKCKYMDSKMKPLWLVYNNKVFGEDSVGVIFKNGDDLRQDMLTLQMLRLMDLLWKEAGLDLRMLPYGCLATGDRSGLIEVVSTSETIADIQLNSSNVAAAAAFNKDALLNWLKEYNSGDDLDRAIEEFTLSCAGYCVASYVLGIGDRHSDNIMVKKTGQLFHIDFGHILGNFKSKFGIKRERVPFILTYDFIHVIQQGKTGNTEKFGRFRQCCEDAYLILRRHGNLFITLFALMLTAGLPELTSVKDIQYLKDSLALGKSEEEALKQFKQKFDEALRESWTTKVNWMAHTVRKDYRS
T4 sequence (P27986 whole entry partner): as the sequence (P27986 whole entry partner) above
Method: as §1, §2, §3, §4, §5, §6, §7

PI3K delta (PI3Kd) = target: T5, PI3K delta (PI3Kd) (Homo sapiens, UniProt O00329); test: kinobeads assay, PI3K delta; assay type: binding; settings: Jurkat cell lysate, read-out: Inhibition values (IC50) PI3Kd
T5 construct: Jurkat cells were homogenized in a Potter S homogenizer in lysis buffer; endogenous in cells; host or cells: Jurkat, clone E6-1 (ATCC TIB-152) lysate
T5 sequence (O00329 whole entry): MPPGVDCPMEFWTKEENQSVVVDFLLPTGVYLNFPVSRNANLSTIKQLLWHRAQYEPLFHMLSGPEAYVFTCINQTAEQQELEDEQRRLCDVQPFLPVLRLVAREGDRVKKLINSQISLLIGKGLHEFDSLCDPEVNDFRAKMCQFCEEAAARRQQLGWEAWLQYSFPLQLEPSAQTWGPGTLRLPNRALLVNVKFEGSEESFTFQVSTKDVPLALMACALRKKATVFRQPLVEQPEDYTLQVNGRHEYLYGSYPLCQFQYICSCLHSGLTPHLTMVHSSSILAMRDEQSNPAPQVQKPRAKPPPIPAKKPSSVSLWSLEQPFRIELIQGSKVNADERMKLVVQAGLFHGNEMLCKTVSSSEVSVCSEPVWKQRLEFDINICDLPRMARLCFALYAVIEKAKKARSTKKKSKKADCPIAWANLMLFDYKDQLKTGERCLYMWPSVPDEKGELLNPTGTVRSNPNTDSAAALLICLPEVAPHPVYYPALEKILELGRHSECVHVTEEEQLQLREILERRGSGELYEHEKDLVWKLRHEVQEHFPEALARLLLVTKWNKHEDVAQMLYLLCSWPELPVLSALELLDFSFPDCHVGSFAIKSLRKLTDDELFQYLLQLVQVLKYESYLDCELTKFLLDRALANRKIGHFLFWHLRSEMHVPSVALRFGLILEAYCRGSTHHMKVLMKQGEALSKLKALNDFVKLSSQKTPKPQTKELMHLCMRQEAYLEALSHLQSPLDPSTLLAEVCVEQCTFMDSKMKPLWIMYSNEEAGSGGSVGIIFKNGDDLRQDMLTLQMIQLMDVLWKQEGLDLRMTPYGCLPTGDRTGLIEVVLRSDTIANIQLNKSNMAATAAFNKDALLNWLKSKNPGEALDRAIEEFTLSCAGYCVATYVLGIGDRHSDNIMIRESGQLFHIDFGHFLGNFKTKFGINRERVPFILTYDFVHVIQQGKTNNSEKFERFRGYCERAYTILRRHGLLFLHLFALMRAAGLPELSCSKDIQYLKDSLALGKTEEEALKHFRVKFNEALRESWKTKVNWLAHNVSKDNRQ
T5 sequence (P27986 whole entry partner): as the sequence (P27986 whole entry partner) above
Method: as §1, §2, §3, §4, §5, §6, §7

PI3K gamma (PI3Kg) = target: T6, PI3K gamma (PI3Kg) (Homo sapiens, UniProt P48736); test: kinobeads assay, PI3K gamma; assay type: binding; settings: Jurkat cell lysate, read-out: Inhibition values (IC50) PI3Kg
T6 construct: Jurkat cells were homogenized in a Potter S homogenizer in lysis buffer; endogenous in cells; host or cells: Jurkat, clone E6-1 (ATCC TIB-152) lysate
T6 sequence (P48736 whole entry): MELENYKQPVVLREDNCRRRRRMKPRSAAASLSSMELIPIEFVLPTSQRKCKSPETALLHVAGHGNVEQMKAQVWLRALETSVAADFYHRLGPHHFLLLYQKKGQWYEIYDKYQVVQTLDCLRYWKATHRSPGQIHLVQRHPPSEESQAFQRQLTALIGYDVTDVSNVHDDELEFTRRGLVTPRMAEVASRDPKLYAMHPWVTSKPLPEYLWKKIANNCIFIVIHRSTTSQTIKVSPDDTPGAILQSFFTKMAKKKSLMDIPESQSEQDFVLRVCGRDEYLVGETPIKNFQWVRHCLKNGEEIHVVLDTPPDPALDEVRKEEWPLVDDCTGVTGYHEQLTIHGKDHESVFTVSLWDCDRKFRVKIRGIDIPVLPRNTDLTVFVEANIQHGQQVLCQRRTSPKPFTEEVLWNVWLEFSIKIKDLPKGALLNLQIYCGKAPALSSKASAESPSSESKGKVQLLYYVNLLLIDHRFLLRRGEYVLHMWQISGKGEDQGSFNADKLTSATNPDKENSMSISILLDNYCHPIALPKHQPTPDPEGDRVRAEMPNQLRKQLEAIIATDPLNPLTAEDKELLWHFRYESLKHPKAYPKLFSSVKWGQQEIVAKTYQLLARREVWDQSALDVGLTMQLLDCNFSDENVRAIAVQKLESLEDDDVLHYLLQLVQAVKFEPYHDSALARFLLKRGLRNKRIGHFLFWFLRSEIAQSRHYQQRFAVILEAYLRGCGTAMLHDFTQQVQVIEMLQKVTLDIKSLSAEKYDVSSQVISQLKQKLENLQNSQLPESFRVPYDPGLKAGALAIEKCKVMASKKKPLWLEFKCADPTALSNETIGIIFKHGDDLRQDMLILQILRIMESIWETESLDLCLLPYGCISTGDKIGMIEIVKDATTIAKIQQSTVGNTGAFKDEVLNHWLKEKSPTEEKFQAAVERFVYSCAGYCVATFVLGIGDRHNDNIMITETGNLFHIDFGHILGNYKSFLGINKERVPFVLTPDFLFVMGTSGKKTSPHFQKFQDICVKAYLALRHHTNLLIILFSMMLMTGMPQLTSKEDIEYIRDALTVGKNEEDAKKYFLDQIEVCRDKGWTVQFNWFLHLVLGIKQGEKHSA
Method: as §1, §2, §3, §4, §5, §6, §7

CNC(=O)Nc1ccc(-c2nc(-c3cc(F)ccc3S(C)(=O)=O)nc(N3CCOC[C@@H]3C)n2)cc1 [Example 2, (S)-1-(4-(4-(5-fluoro-2-(methylsulfonyl)phenyl)-6-(3-methylmorpholino)-1,3,5-triazin-2-yl)phenyl)-3-methylurea]
IC50 [1]: < 0.1 µM | IC50 (PI3K alpha (PI3Kα)): > 10 µM | IC50 [2]: > 10 µM | IC50 (mTOR): 0.1 to 1 µM

CS(=O)(=O)c1ccccc1-c1nc(-c2ccc(NC(=O)NC3CC3)cc2)nc(N2CCOCC2CO)n1 (centres unmarked) [Example 23, 1-cyclopropyl-3-(4-(4-(3-(hydroxymethyl)morpholino)-6-(2-(methylsulfonyl)phenyl)-1,3,5-triazin-2-yl)phenyl)urea]
IC50 (PI3K beta (PI3Kb)): > 10 µM | IC50 (PI3K delta (PI3Kd)): > 10 µM | IC50 (PI3K alpha (PI3Kα)): > 10 µM | IC50 [2]: > 10 µM | IC50 (PI3K gamma (PI3Kg)): > 10 µM | IC50 (mTOR): 1 to 10 µM

C[C@H]1COCCN1c1nc(-c2ccc(NC(=O)NC3CCCCC3)cc2)nc(-c2ccccc2S(C)(=O)=O)n1 [Example 28, (S)-1-cyclohexyl-3-(4-(4-(3-methylmorpholino)-6-(2-(methylsulfonyl)phenyl)-1,3,5-triazin-2-yl)phenyl)urea]
IC50 (PI3K beta (PI3Kb)): > 10 µM | IC50 (PI3K delta (PI3Kd)): > 10 µM | IC50 (PI3K alpha (PI3Kα)): > 10 µM | IC50 [2]: > 10 µM | IC50 (PI3K gamma (PI3Kg)): > 10 µM | IC50 (mTOR): 1 to 10 µM

C[C@H]1COCCN1c1nc(-c2ccc(NC(=O)NCCC(N)C(F)(F)F)cc2)nc(-c2ccccc2S(C)(=O)=O)n1 (stereo partly drawn) [Example 37, 1-(3-amino-4,4,4-trifluorobutyl)-3-(4-(4-((S)-3-methylmorpholino)-6-(2-(methylsulfonyl)phenyl)-1,3,5-triazin-2-yl)phenyl)urea]
IC50 (PI3K alpha (PI3Kα)): > 10 µM | IC50 (mTOR): 1 to 10 µM

CS(=O)(=O)c1ccc(F)cc1-c1nc(-c2ccc(NC(=O)NC3CC3)cc2)nc(N2CC3CCC(C2)O3)n1 [Example 39, 1-(4-(4-(8-oxa-3-azabicyclo[3.2.1]octan-3-yl)-6-(5-fluoro-2-(methylsulfonyl)phenyl)-1,3,5-triazin-2-yl)phenyl)-3-cyclopropylurea]
IC50 [1]: 0.1 to 1 µM | IC50 (PI3K alpha (PI3Kα)): > 10 µM | IC50 (mTOR): 1 to 10 µM

CCNC(=O)Nc1ccc(-c2nc(-c3cccnc3S(C)(=O)=O)nc(N3CCOC[C@@H]3C)n2)cc1 [Example 40, (S)-1-ethyl-3-(4-(4-(3-methylmorpholino)-6-(2-(methylsulfonyl)pyridin-3-yl)-1,3,5-triazin-2-yl)phenyl)ure]
IC50 [1]: < 0.1 µM | IC50 (PI3K alpha (PI3Kα)): 1 to 10 µM | IC50 [2]: > 10 µM | IC50 (mTOR): < 0.1 µM

CNC(=O)Nc1ccc(-c2nc(-c3cccnc3S(C)(=O)=O)nc(N3CCOC[C@@H]3C)n2)cc1 [Example 41, (S)-1-methyl-3-(4-(4-(3-methylmorpholino)-6-(2-(methylsulfonyl)pyridin-3-yl)-1,3,5-triazin-2-yl)phenyl)urea]
IC50 [1]: < 0.1 µM | IC50 (PI3K alpha (PI3Kα)): 1 to 10 µM | IC50 [2]: > 10 µM | IC50 (mTOR): < 0.1 µM

CCNC(=O)Nc1ccc(-c2nc(-c3cc(F)ccc3S(C)(=O)=O)nc(N3CCOC[C@@H]3C)n2)cc1 [Example 42, (S)-1-ethyl-3-(4-(4-(5-fluoro-2-(methylsulfonyl)phenyl)-6-(3-methylmorpholino)-1,3,5-triazin-2-yl)phenyl)urea]
IC50 [1]: < 0.1 µM | IC50 (PI3K alpha (PI3Kα)): > 10 µM | IC50 [2]: > 10 µM | IC50 (mTOR): 0.1 to 1 µM

C[C@H]1COCCN1c1nc(-c2ccc(NC(=O)NCC(F)F)cc2)nc(-c2cc(F)ccc2S(C)(=O)=O)n1 [Example 43, (S)-1-(2,2-difluoroethyl)-3-(4-(4-(5-fluoro-2-(methylsulfonyl)phenyl)-6-(3-methylmorpholino)-1,3,5-triazin-2-yl)phenyl)urea]
IC50 [1]: < 0.1 µM | IC50 (PI3K alpha (PI3Kα)): > 10 µM | IC50 [2]: > 10 µM | IC50 (mTOR): 0.1 to 1 µM

C[C@H]1COCCN1c1nc(-c2ccc(NC(=O)NCCF)cc2)nc(-c2cc(F)ccc2S(C)(=O)=O)n1 [Example 44, (S)-1-(4-(4-(5-fluoro-2-(methylsulfonyl)phenyl)-6-(3-methylmorpholino)-1,3,5-triazin-2-yl)phenyl)-3-(2-fluoroethyl)urea]
IC50 [1]: < 0.1 µM | IC50 (PI3K alpha (PI3Kα)): > 10 µM | IC50 [2]: > 10 µM | IC50 (mTOR): 0.1 to 1 µM
